pIC50, pKi: −log10 of the molar value.
Experiments:
[1] = molecular target: T1, Calcitonin gene-related peptide type 1 receptor (Homo sapiens, UniProt O60894+Q16602); assay: Displacement of [I125]CGRP from CGRP receptor in human SK-N-MC cell membrane after 2 hrs by gamma or scintillation counting; assay type: cell membranes
[2] = molecular target: T1, Calcitonin gene-related peptide type 1 receptor; assay: Antagonist activity at CGRP receptor in human SK-N-MC cells assessed as inhibition of CGRP-stimulated cAMP production; assay type: functional, cell-based
Liver microsomes [3] = assay: Metabolic stability in rat liver microsomes; assay type: ADME, Microsome
Liver microsomes [4] = assay: Metabolic stability in human liver microsomes; assay type: ADME, Microsome
Plasma = assay: Fraction unbound in po dosed rat plasma; assay type: ADME, organism-based; conditions: in vivo
[5] = Oral bioavailability in rat; assay type: ADME, organism-based; conditions: in vivo
[6] = molecular target: T1, Calcitonin gene-related peptide type 1 receptor; assay: Antagonist activity at CGRP receptor in human SK-N-MC cells assessed as inhibition of CGRP-stimulated cAMP production in presence of plasma; assay type: functional, cell-based
[7] = Permeability across human Caco2 cells; assay type: ADME, cell-based; conditions: Caco-2, read-out: permeability

T1 sequence (Q16602 whole entry, one chain of several): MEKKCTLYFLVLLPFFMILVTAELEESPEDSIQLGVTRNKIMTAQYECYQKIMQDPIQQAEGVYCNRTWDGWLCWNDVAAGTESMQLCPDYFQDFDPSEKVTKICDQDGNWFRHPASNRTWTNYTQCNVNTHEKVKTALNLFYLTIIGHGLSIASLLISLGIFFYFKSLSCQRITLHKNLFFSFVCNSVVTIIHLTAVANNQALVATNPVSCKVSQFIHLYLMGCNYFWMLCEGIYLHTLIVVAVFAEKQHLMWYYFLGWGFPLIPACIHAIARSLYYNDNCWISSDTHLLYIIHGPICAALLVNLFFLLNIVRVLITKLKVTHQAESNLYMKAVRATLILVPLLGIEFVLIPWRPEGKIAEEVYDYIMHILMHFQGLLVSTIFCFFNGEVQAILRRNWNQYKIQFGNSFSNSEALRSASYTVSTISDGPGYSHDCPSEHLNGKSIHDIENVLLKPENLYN

Structure (SMILES) | pIC50 [1] | pIC50 [2] | Stability (Liver microsomes [3]) | Stability (Liver microsomes [4]) | other results
Cc1cc(CC(OC(=O)N2CCC(N3Cc4ccccc4NC3=O)CC2)c2ccccn2)cc2c(-c3ccccc3)n[nH]c12 (stereo unspecified) | 9.62 | – | – | – | –
Cc1cc(CC(NC(=O)N2CCC(N3Cc4ccccc4NC3=O)CC2)c2cccc(-c3ccccc3)n2)cc2cn[nH]c12 (stereo unspecified) | 7.92 | 7.85 | – | – | –
Cc1cc(CC(OC(=O)N2CCC(N3Cc4ccccc4NC3=O)CC2)c2cc(C(=O)N3CCCCC3)ccn2)cc2cn[nH]c12 (stereo unspecified) | 9.55 | 10.00 | Unstable | Unstable | –
Cc1cc(CC(OC(=O)N2CCC(N3Cc4ccccc4NC3=O)CC2)c2cc(CN3CCCCC3)ccn2)cc2cn[nH]c12 (stereo unspecified) | 10.00 | 10.70 | Unstable | Unstable | –
Cc1cc(CC(OC(=O)N2CCC(c3cc4ccccc4[nH]c3=O)CC2)c2cc(C(=O)N(C)C)cc(Cl)n2)cc2cn[nH]c12 (stereo unspecified) | 9.55 | 9.47 | – | – | Cp(f) (Plasma): 6%; bioavailability [5]: 4.5%; pKi [6]: 8.48; Papp [7]: 5.2 ×10⁻⁶ cm/s
Cc1cc(CC(OC(=O)N2CCC(N3Cc4ccccc4NC3=O)CC2)c2cc(-c3ccncc3)ccn2)cc2cn[nH]c12 (stereo unspecified) | 9.57 | – | Unstable | Unstable | –
Cc1cc(CC(OC(=O)N2CCC(N3Cc4ccccc4NC3=O)CC2)c2ccc3ccccc3n2)cc2cn[nH]c12 (stereo unspecified) | 8.85 | 8.32 | Unstable | Unstable | –
Cc1cc(CC(NC(=O)N2CCC(N3Cc4ccccc4NC3=O)CC2)c2ccccn2)cc2cn[nH]c12 (stereo unspecified) | 8.51 | 8.39 | – | – | –
Cc1ccc(C(CC(=O)N2CCC(N3Cc4ccccc4NC3=O)CC2)Cc2cc(C)c3[nH]ncc3c2)nc1 (stereo unspecified) | 7.92 | 7.74 | – | – | bioavailability [5]: 1%; Papp [7]: 6.4 ×10⁻⁶ cm/s
Cc1cc(CC(OC(=O)N2CCC(c3cc4ccccc4[nH]c3=O)CC2)c2cc(CN3CCCCCC3)ccn2)cc2cn[nH]c12 (stereo unspecified) | 10.02 | 10.38 | Unstable | Unstable | Papp [7]: 2.8 ×10⁻⁶ cm/s
Cc1cc(CC(NC(=O)N2CCC(N3Cc4ccccc4NC3=O)CC2)c2ccc3ccccc3n2)cc2cn[nH]c12 (stereo unspecified) | 8.70 | 8.85 | – | – | –
Cc1cc(CC(OC(=O)N2CCC(N3Cc4ccccc4NC3=O)CC2)c2ccccn2)cc2c(Br)n[nH]c12 (stereo unspecified) | 9.48 | – | – | – | –
Cc1cc(CC(OC(=O)N2CCC(n3c(=O)[nH]c4ncccc43)CC2)c2cc(C(=O)N(C)C)cc(Cl)n2)cc2cn[nH]c12 (stereo unspecified) | 10.15 | – | – | – | Cp(f) (Plasma): 21%; pKi [6]: 9.74; Papp [7]: 1.6 ×10⁻⁶ cm/s
Cc1cc(CC(OC(=O)N2CCC(c3cc4ccccc4[nH]c3=O)CC2)c2cc(CN3CCCC3)ccn2)cc2cn[nH]c12 (stereo unspecified) | 9.62 | – | Unstable | Unstable | Papp [7]: 4.9 ×10⁻⁶ cm/s
Cc1cc(CC(OC(=O)N2CCC(N3Cc4ccccc4NC3=O)CC2)c2cc(C(=O)N(C)C)ccn2)cc2cn[nH]c12 (stereo unspecified) | 9.48 | – | Unstable | Unstable | –
Cc1cc(CC(NC(=O)N2CCC(N3Cc4ccccc4NC3=O)CC2)c2cc3ccccc3cn2)cc2cn[nH]c12 (stereo unspecified) | 9.09 | 9.00 | – | – | –
Cc1cc(CC(OC(=O)N2CCC(N3Cc4ccccc4NC3=O)CC2)c2ccccn2)cc2c(CN3CCOCC3)n[nH]c12 (stereo unspecified) | 8.72 | – | – | – | –
Cc1cc(CC(CC(=O)N2CCC(N3Cc4ccccc4NC3=O)CC2)c2ccccn2)cc2cn[nH]c12 (stereo unspecified) | 8.07 | 8.06 | – | – | bioavailability [5]: 3%; Papp [7]: 12 ×10⁻⁶ cm/s
Cc1cc(CC(OC(=O)N2CCC(N3Cc4ccccc4NC3=O)CC2)c2ccccn2)cc2c(Cl)n[nH]c12 (stereo unspecified) | 9.41 | – | – | – | –
Cc1cc(CC(CC(=O)N2CCC(N3Cc4ccccc4NC3=O)CC2)c2ccc(C=O)cn2)cc2cn[nH]c12 (stereo unspecified) | 8.96 | 9.03 | – | – | –
Cc1cc(CC(CC(=O)N2CCC(N3Cc4ccccc4NC3=O)CC2)c2ccc(CN3CCCCC3)cn2)cc2cn[nH]c12 (stereo unspecified) | 8.74 | 8.89 | – | – | Papp [7]: < 1.5 ×10⁻⁶ cm/s
Cc1cc(C[C@@H](NC(=O)N2CCC(N3Cc4cccc(F)c4NC3=O)CC2)C(=O)N2CCC(N3CCCCC3)CC2)cc2cn[nH]c12 | – | – | – | – | pKi [1]: 10.89
Cc1cc(CC(CC(=O)N2CCC(N3Cc4cccc(F)c4NC3=O)CC2)c2ccccn2)cc2cn[nH]c12 (stereo unspecified) | 7.46 | 7.70 | – | – | bioavailability [5]: 3%; Papp [7]: 21 ×10⁻⁶ cm/s
Cc1cc(CC(OC(=O)N2CCC(N3Cc4ccccc4NC3=O)CC2)c2ccccn2)cc2c(CN3CCCCC3)n[nH]c12 (stereo unspecified) | 8.18 | – | – | – | –
Cc1cc(CC(OC(=O)N2CCC(N3Cc4ccccc4NC3=O)CC2)c2cc(C=O)ccn2)cc2cn[nH]c12 (stereo unspecified) | 9.68 | 9.55 | Unstable | Unstable | –
Cc1cc(CC(CC(=O)N2CCC(c3cc4ccccc4[nH]c3=O)CC2)c2ccccn2)cc2cn[nH]c12 (stereo unspecified) | 7.62 | 7.52 | – | – | Papp [7]: 3.4 ×10⁻⁶ cm/s

Continued by rising pIC50 [1], values first:

pIC50 [1] | pIC50 [2] | Stability (Liver microsomes [3]) | Stability (Liver microsomes [4]) | Structure (SMILES) | other results
7.52 | 7.55 | Unstable | Unstable | Cc1cc(CC(OC(=O)N2CCC(N3Cc4ccccc4NC3=O)CC2)c2cc(C(=O)O)ccn2)cc2cn[nH]c12 (stereo unspecified) | –
7.92 | – | Unstable | Unstable | Cc1cc(CC(OC(=O)N2CCC(c3cc4ccccc4[nH]c3=O)CC2)c2ccccn2)cc2cn[nH]c12 (stereo unspecified) | –
8.00 | 7.89 | – | – | CCc1ccnc(C(CC(=O)N2CCC(N3Cc4ccccc4NC3=O)CC2)Cc2cc(C)c3[nH]ncc3c2)c1 (stereo unspecified) | bioavailability [5]: 2%; Papp [7]: 14 ×10⁻⁶ cm/s
8.10 | 8.22 | – | – | Cc1cc(CC(CC(=O)N2CCC(N3Cc4ccccc4NC3=O)CC2)c2ccc(CO)cn2)cc2cn[nH]c12 (stereo unspecified) | –
8.17 | – | – | – | Cc1cc(CC(OC(=O)N2CCC(N3Cc4ccccc4NC3=O)CC2)c2ccccn2)cc2c(CN3CCCC3)n[nH]c12 (stereo unspecified) | –
8.36 | – | Unstable | Unstable | COC(=O)c1ccnc(C(Cc2cc(C)c3[nH]ncc3c2)OC(=O)N2CCC(N3Cc4ccccc4NC3=O)CC2)c1 (stereo unspecified) | –
8.36 | 8.09 | – | – | Cc1cccnc1C(CC(=O)N1CCC(N2Cc3ccccc3NC2=O)CC1)Cc1cc(C)c2[nH]ncc2c1 (stereo unspecified) | –
8.42 | 8.47 | – | – | Cc1cccc(C(Cc2cc(C)c3[nH]ncc3c2)NC(=O)N2CCC(N3Cc4ccccc4NC3=O)CC2)n1 (stereo unspecified) | –
8.52 | – | Unstable | Unstable | Cc1cc(CC(OC(=O)N2CCC(N3Cc4ccccc4NC3=O)CC2)c2cc(C#N)ccn2)cc2cn[nH]c12 (stereo unspecified) | –
8.70 | 8.68 | Unstable | Unstable | Cc1cc(CC(OC(=O)N2CCC(N3Cc4ccccc4NC3=O)CC2)c2cc(CO)ccn2)cc2cn[nH]c12 (stereo unspecified) | –
8.82 | 8.72 | Unstable | Unstable | Cc1cc(CC(OC(=O)N2CCC(N3Cc4ccccc4NC3=O)CC2)c2ccccn2)cc2cn[nH]c12 (stereo unspecified) | –
8.89 | – | – | – | Cc1cc(CC(OC(=O)N2CCC(N3Cc4ccccc4NC3=O)CC2)c2ccccn2)cc2c(C=O)n[nH]c12 (stereo unspecified) | –
8.92 | – | Unstable | Unstable | Cc1cc(CC(OC(=O)N2CCC(c3cc4ccccc4[nH]c3=O)CC2)c2cc(CN3CCOCC3)ccn2)cc2cn[nH]c12 (stereo unspecified) | Papp [7]: 9.9 ×10⁻⁶ cm/s
9.31 | 9.09 | – | – | Cc1cc(CC(NC(=O)N2CCC(N3Cc4ccccc4NC3=O)CC2)c2cccc(Br)n2)cc2cn[nH]c12 (stereo unspecified) | –
9.34 | 9.20 | Unstable | Unstable | Cc1cc(CC(OC(=O)N2CCC(N3Cc4ccccc4NC3=O)CC2)c2cc3ccccc3cn2)cc2cn[nH]c12 (stereo unspecified) | –
9.42 | 9.34 | Unstable | Unstable | Cc1cc(CC(OC(=O)N2CCC(N3Cc4ccccc4NC3=O)CC2)c2cccc(Br)n2)cc2cn[nH]c12 (stereo unspecified) | –
9.80 | 10.00 | Unstable | Unstable | Cc1cc(CC(OC(=O)N2CCC(c3cc4ccccc4[nH]c3=O)CC2)c2cc(CN3CCCCC3)ccn2)cc2cn[nH]c12 (stereo unspecified) | Papp [7]: 8.5 ×10⁻⁶ cm/s
10.03 | – | – | – | Cc1cc(CC(OC(=O)N2CCC(N3CCc4ccccc4NC3=O)CC2)c2cc(C(=O)N(C)C)cc(Cl)n2)cc2cn[nH]c12 (stereo unspecified) | Papp [7]: < 1.5 ×10⁻⁶ cm/s
10.11 | 10.19 | – | – | Cc1cc(C[C@@H](OC(=O)N2CCC(c3cc4ccccc4[nH]c3=O)CC2)c2cc(C(=O)N(C)C)cc(Cl)n2)cc2cn[nH]c12 | –

Reference: ChEMBL document CHEMBL2021833, “Calcitonin gene-related peptide (CGRP) receptor antagonists: pyridine as a replacement for a core amide group” (Bioorg Med Chem Lett, 2012)
